For assay [1], the system named is THP-1 cells. Kind of assay: Human monocytic THP-1 cell differentiation assay for soluble proteins (THP-1 soluble protein assay). It counts as cell-based. The following applies: LPS-stimulated THP-1 cells; quantity, unit and concentration not given. The text has this:
Human Monocytic THP-1 Cell Differentiation Assay For Soluble Proteins (THP-1 Soluble Protein Assay)
Mitogenic stimulation of THP-1 cells cause differentiation into macrophage like cells with concomitant secretion of tumor necrosis factor (TNF-α) and TNF receptor (TNF-R p75/80 and TNF-R p55/60) and Interleukin-8 (IL-8), among other proteins. In addition, non-stimulated THP-1 cells shed both the p75/80 and the […] receptors over time. The release of membrane bound TNF-α and possibly TNF-R p75/80 and TNF-R p55/60, but not IL-8, is mediated by an enzyme called TNF-α converting enzyme or TACE.
THP-1 cells (from ATCC) are a human monocytic cell line which were obtained from the peripheral blood of a person with acute monocytic leukemia. They can be grown in culture and differentiated into macrophage like cells by stimulation with mitogens.
For the assay, THP-1 cells are seeded from an ATCC stock which was previously grown and frozen back at 5 x 10^6/ml/vial. […]
To perform an assay, the THP-1 cells are co-incubated in a 24 well plate with […] of a 24 mg/ml stock of Lipopolysacharide (LPS) (Calbiochem Lot# B13189) at 37°C in 5% CO2 at a concentration of 1.091 x 10^6 cells/ml (1.1 ml/well) for a total of 24 hours. […] Compounds can be evaluated for their effect on basal (non-stimulated) shedding of the receptors by replacing the LPS with […] of THP-1 media. […]
In addition, at the 24 hours timepoint, and the cells for each treatment group are collected by resuspension in 500 µl/well of THP-1 media and transferred into a FACS tube. […] The samples are run on a Becton Dickinson FaxCaliber FLOW cytometry machine and the amount of dye taken up by each cell is measured in the high red wavelength (FL3). […] The percent of live cells is calculated by the number of cells not stained with PI, divided by the total number of cells in the sample. The viability values calculated for the drug treated groups were compared to the viability value calculated for the vehicle treated mitogen stimulated group ("vehicle positive control") to determine the "percent change from control". […]

Assay [2] addresses TACE (Homo sapiens, UniProt P78536). Briefly: TACE inhibition test procedure (fluorescent peptidyl substrate). The assay is classed as biochemical. The method, then:
Test Procedure for Measuring TACE Inhibition
Using 96-well black microtiter plates, each well receives a solution composed of 10 µL TACE (final concentration 1µg/mL), 70µL Tris buffer, pH 7.4 containing 10% glycerol (final concentration 10 mM), and 10 µL of test compound solution in DMSO (final concentration 1µM, DMSO concentration <1%) and incubated for 10 minutes at room temperature. The reaction is initiated by addition of a fluorescent peptidyl substrate (final concentration 100 µM) to each well and then shaking on a shaker for 5 sec.
The reaction is read (excitation 340 nm, emission 420 nm) for 10 min. and the increase in fluorescence over time is plotted as a linear line. The slope of the line is calculated and represents the reaction rate.
The linearity of the reaction rate is confirmed (r^2 >0.85). The mean (x±sem) of the control rate is calculated and compared for statistical significance (p<0.05) with drug-treated rates using Dunnett's multiple comparison test. Dose-response relationships can be generate using multiple doses of drug and IC50 values with 95% CI are estimated using linear regression.

From patent EP1149074B1, “ACETYLENIC SULFONAMIDE THIOL TACE INHIBITORS” (Wyeth Holdings Corporation, priority 1999, dated 2000) come the findings set out here.

For orientation: IC50 means the midpoint of a concentration-inhibition curve.

Sequence of TACE (P78536 215-824): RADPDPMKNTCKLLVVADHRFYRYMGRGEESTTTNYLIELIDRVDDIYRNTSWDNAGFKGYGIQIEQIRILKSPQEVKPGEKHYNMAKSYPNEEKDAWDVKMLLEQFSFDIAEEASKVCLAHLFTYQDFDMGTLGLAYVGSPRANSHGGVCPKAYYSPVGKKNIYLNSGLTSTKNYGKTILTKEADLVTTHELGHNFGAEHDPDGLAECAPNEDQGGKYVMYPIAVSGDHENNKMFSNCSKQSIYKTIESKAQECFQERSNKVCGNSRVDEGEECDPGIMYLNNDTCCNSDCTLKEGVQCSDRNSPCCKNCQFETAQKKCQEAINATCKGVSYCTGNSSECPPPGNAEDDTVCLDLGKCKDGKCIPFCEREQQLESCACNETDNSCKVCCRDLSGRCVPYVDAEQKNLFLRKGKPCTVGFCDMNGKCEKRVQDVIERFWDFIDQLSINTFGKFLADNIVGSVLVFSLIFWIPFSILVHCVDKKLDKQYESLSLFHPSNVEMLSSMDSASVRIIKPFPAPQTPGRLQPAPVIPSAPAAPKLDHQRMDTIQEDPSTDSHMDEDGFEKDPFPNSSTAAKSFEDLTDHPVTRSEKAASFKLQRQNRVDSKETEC

With `CC#CCOc1ccc(S(=O)(=O)N(C)[C@H](C)CS)cc1` [Example 8, 4-But-2-ynyloxy-N-((1R)-2-mercapto-1-methyl-ethyl)-N-methyl-benzenesulfonamide], the THP in assay [1] came to 3. Take `CC#CCOc1ccc(S(=O)(=O)N(CCN2CCOCC2)[C@H](C)CS)cc1` [Example 11, 4-(2-Butynyloxy)-N-[(1R)-1-methyl-2-sulfanylethyl]-N-[2-(4-morpholinyl)ethyl]benzenesulfonamide]: the midpoint of inhibition in assay [2], the IC50, lay at 362 nM. Besides, the THP in assay [1] came to 11. Taken in the same sequence, the figures for `CC#CCOc1ccc(S(=O)(=O)N(CCN2CCOCC2)[C@@H](CS)C(N)=O)cc1` [Example 15, (2R)-2-{{[4-(2-Butynyloxy)phenyl]sulfonyl}[2-(4-morpholinyl)ethyl]amino}-3-sulfanylpropanamide] were 263 nM and 19.
